Source: patent US9340554B2, “IRAK inhibitors and uses thereof” (Nimbus Iris, Inc., priority 2011, dated 2016)

Biological target: T1, IRAK4 (Homo sapiens, UniProt Q9NWZ3)
T1 construct: purchased CARNA Bioscience 09-145
T1 sequence (Q9NWZ3 1-460): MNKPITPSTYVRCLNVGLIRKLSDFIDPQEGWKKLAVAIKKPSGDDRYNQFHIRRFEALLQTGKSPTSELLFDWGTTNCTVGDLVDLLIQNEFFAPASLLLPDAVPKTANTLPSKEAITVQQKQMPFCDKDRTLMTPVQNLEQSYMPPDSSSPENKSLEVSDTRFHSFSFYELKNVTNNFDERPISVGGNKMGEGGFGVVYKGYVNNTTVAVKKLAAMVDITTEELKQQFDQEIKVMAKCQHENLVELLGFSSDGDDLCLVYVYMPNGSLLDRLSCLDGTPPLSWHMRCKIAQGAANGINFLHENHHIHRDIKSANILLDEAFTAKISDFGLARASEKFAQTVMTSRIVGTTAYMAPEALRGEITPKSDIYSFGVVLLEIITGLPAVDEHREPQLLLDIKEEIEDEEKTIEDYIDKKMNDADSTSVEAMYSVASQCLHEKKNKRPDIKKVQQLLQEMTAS
Test: IRAK-4 activity inhibition assay (Caliper, Peptide 8, 37 μM ATP)
Format: biochemical
Conditions: 3.5 nM IRAK4, 1.5 μM Peptide 8, 37 μM ATP, 28° C. 40 minutes; read-out: IRAK-4 activity inhibition IC50
Protocol: A 1× kinase base buffer was prepared from 50 mM HEPES, pH 7.5 and 0.0015% Brij-35. A stop buffer was prepared from 100 mM HEPES, pH 7.5, 0.015% Brij-35, 0.2% Coating Reagent #3, and 50 mM EDTA.
Test compound was diluted to 50× of the final desired highest inhibitor concentration in reaction by 100% DMSO. 100 ul of this compound dilution was transferred to a well in a 96-well plate.
Test compound was serially diluted by transferring 30 μl to 60 μl of 100% DMSO in the next well and so forth for a total of 10 concentrations. 100 μl of 100% DMSO was added to two empty wells for no compound control and no enzyme control in the same 96-well plate.
A new 96-well plate was marked as intermediate plate. 5 μl of compound serial dilution was transferred from source plate to the corresponding wells of the intermediate plate. 45 μl of 1× kinase base buffer (KB buffer) was added to each well of the intermediate plate. The intermediate plate was placed for 10 min on a shaker.
5 μl of each well was transferred from the 96-well intermediate plate to a 384-well plate in duplicates. […] A2 of the 96-well plate is transferred to A3 and A4 of the 384-well plate, and so on.
IRAK4 and DTT in 1× kinase base buffer was added.
Assay plate already contained 5 μl of compound in 10% DMSO. Added 10 μl of 2.5× enzyme solution to each well of the 384-well assay plate, except no enzyme control wells. […] Added 10 μl of 1× kinase base buffer to no enzyme control wells in the assay plate. Incubated at room temperature for 10 min.
Added 10 μl of 2.5× peptide solution to each well of the 384-well assay plate. […] Incubated at 28° C. for 40 minutes. Added 25 μl of stop buffer to stop reaction. Collected data on Caliper.
Copied conversion % data from Caliper program. Converted conversion % values to percent inhibition values. Percent inhibition=(max−conversion %)/(max−min)*100, where “max” means the conversion % of DMSO control and “min” means the conversion % of no enzyme control.
The compound numbers correspond to the compound numbers in Table 1. […] “NA” stands for “not assayed.”

| Compound | IC50 |
| --- | --- |
| O=C(CN(CC(=O)N1CCCC1)[C@H]1CC[C@H](Oc2ncnc3sc4c(c23)CCC4)CC1)N1CCCC1 [Compound I-137, trans-2-[[2-oxo-2-(pyrrolidin-1-yl)ethyl](4-[7-thia-9,11-diazatricyclo[6.4.0.0[2,6]]dodeca-1(8),2(6),9,11-tetraen-12-yloxy]cyclohexyl)amino]-1-(pyrrolidin-1-yl)ethan-1-one] | 5 to 20 µM |
| CC1CCc2sc3ncnc(N4CCC(C(N)=O)CC4)c3c2C1 (stereo not shown) [Compound I-36] | 5 to 20 µM |
| NC(=O)C1CCN(c2ncnc3sc4c(c23)CCCC4)CC1 [Compound I-1] | 5 to 20 µM |
| C[C@@H](Nc1ncnc2sc3c(c12)CCC3)C(=O)O [Compound I-153] | > 50 µM |
| CN(C)[C@H]1CC[C@H](COc2ncnc3sc4c(c23)CCC4)CC1 [Compound I-148, (1r,4r)-4-(((6,7-dihydro-5H-cyclopenta[4,5]thieno[2,3-d]pyrimidin-4-yl)oxy)methyl)-N,N-dimethylcyclohexanamine] | 20 to 50 µM |
| Cc1sc2ncnc(N3CCC(C(=O)Nc4ccc(C#N)c(Cl)c4)CC3)c2c1C [Compound I-31] | 5 to 20 µM |
| O=C(CN(CC(=O)N1CCCC1)[C@H]1CC[C@H](Nc2ncnc3sc4c(c23)CCC4)CC1)N1CCCC1 [Compound I-136, trans-2-[[2-oxo-2-(pyrrolidin-1-yl)ethyl][4-([7-thia-9,11-diazatricyclo[6.4.0.0[2,6]]dodeca-1(8),2(6),9,11-tetraen-12-yl]amino)cyclohexyl]amino]-1-(pyrrolidin-1-yl)ethan-1-one] | 5 to 20 µM |
| CC1CCc2c(sc3ncnc(N4CCC(C(N)=O)CC4)c23)C1 (stereo not shown) [Compound I-3] | 5 to 20 µM |
| CCOc1ccccc1N1CCN(c2ncnc3sc4c(c23)CCC4)CC1 [Compound I-30] | > 50 µM |
| c1nc(OCC2CCNCC2)c2c3c(sc2n1)CCC3 [Compound I-60] | 5 to 20 µM |
| NCC1CCN(c2ncnc3sc4c(c23)CCC4)CC1 [Compound I-63] | 5 to 20 µM |
| CN(C)CCN1CCN(c2ncnc3sc4c(c23)CCC4)CC1 [Compound I-150, 2-(4-(6,7-dihydro-5H-cyclopenta[4,5]thieno[2,3-d]pyrimidin-4-yl)piperazin-1-yl)-N,N-dimethylethanamine] | 20 to 50 µM |
| CN(C(=O)Cc1ccccn1)[C@H]1CC[C@H](Nc2ncnc3sc4c(c23)CCC4)CC1 [Compound I-103, N-methyl-2-(pyridin-2-yl)-N-[4-([7-thia-9,11-diazatricyclo[6.4.0.0^[2,6]]dodeca-1(8),2(6),9,11-tetraen-12-yl]amino)cyclohexyl]acetamide] | 20 to 50 µM |
| CN(C)CC1CC(Oc2ncnc3sc4c(c23)CCC4)C1 (stereo not shown) [Compound I-141, 1-(3-((6,7-dihydro-5H-cyclopenta[4,5]thieno[2,3-d]pyrimidin-4-yl)oxy)cyclobutyl)-N,N-dimethylmethanamine] | 5 to 20 µM |
| CN(CC(=O)N1CCOCC1)[C@H]1CC[C@H](Nc2ncnc3sc4c(c23)CCC4)CC1 [Compound I-130, 2-[methyl[4-([7-thia-9,11-diazatricyclo[6.4.0.0[2,6]]dodeca-1(12),2(6),8,10-tetraen-12-yl]amino)cyclohexyl]amino]-1-(morpholin-4-yl)ethan-1-one] | < 5 µM |

Now from value to compound:

| IC50 | Compound |
| --- | --- |
| < 5 µM | CN(CCc1ccccc1Cl)[C@H]1CC[C@H](Nc2ncnc3sc4c(c23)CCC4)CC1 [Compound I-112, 1-N-[2-(2-chlorophenyl)ethyl]-1-N-methyl-4-N-[7-thia-9,11-diazatricyclo[6.4.0.0^[2,6]]dodeca-1(12),2(6),8,10-tetraen-12-yl]cyclohexane-1,4-diamine] |
| < 5 µM | CN(Cc1ccccc1)[C@H]1CC[C@H](Nc2ncnc3sc4c(c23)CCC4)CC1 [Compound I-151, (1r,4r)-N1-benzyl-N4-(6,7-dihydro-5H-cyclopenta[4,5]thieno[2,3-d]pyrimidin-4-yl)-N1-methylcyclohexane-1,4-diamine] |
| < 5 µM | CN(CCc1cccc(Cl)c1)[C@H]1CC[C@H](Nc2ncnc3sc4c(c23)CCC4)CC1 [Compound I-107, 1-N-[2-(3-chlorophenyl)ethyl]-1-N-methyl-4-N-[7-thia-9,11-diazatricyclo[6.4.0.0^[2,6]]dodeca-1(8),2(6),9,11-tetraen-12-yl]cyclohexane-1,4-diamine] |
| < 5 µM | CN(Cc1ccc(C(N)=O)cc1)[C@H]1CC[C@H](Nc2ncnc3sc4c(c23)CCC4)CC1 [Compound I-164, 4-([methyl[4-([7-thia-9,11-diazatricyclo[6.4.0.0^[2,6]]dodeca-1(8),2(6),9,11-tetraen-12-yl]amino)cyclohexyl]amino]methyl)benzamide] |
| < 5 µM | CN(Cc1ccncc1)[C@H]1CC[C@H](Nc2ncnc3sc4c(c23)CCC4)CC1 [Compound I-162] |
| < 5 µM | CC(C)CN(C)[C@H]1CC[C@H](Nc2ncnc3sc4c(c23)CCC4)CC1 [Compound I-127, 1-N-methyl-1-N-(2-methylpropyl)-4-N-[7-thia-9,11-diazatricyclo[6.4.0.0[2,6]]dodeca-1(8),2(6),9,11-tetraen-12-yl]cyclohexane-1,4-diamine] |
| < 5 µM | CCN(Cc1ccccc1)[C@H]1CC[C@H](Oc2ncnc3sc4c(c23)CCC4)CC1 [Compound I-117, (1r,4r)-N-benzyl-4-((6,7-dihydro-5H-cyclopenta[4,5]thieno[2,3-d]pyrimidin-4-yl)oxy)-N-ethylcyclohexanamine] |
| < 5 µM | CN(CCc1ccccc1)[C@H]1CC[C@H](Oc2ncnc3sc4c(c23)CCC4)CC1 [Compound I-121, N-methyl-N-(2-phenylethyl)-4-[7-thia-9,11-diazatricyclo[6.4.0.0[2,6]]dodeca-1(8),2(6),9,11-tetraen-12-yloxy]cyclohexan-1-amine] |
| < 5 µM | CN(Cc1ccco1)[C@H]1CC[C@H](Nc2ncnc3sc4c(c23)CCC4)CC1 [Compound I-101, 1-N-(furan-2-ylmethyl)-1-N-methyl-4-N-[7-thia-9,11-diazatricyclo[6.4.0.0^[2,6]]dodeca-1(8),2(6),9,11-tetraen-12-yl]cyclohexane-1,4-diamine] |
| < 5 µM | CCC1CCc2c(sc3ncnc(N[C@H]4CC[C@H](N(C)C)CC4)c23)C1 (stereo partly drawn) [Compound I-55, trans-N^1-(7-ethyl-5,6,7,8-tetrahydrobenzo[4,5]thieno[2,3-d]pyrimidin-4-yl)-N^4,N^4-dimethylcyclohexane-1,4-diamine] |
| < 5 µM | CN(C)[C@H]1CC[C@H](Oc2ncnc3sc4c(c23)CCC4)CC1 [Compound I-67, trans-4-((6,7-dihydro-5H-cyclopenta[4,5]thieno[2,3-d]pyrimidin-4-yl)oxy)-N,N-dimethylcyclohexanamine] |
| < 5 µM | CN[C@H]1CC[C@H](Nc2ncnc3sc4c(c23)CCC4)CC1 [Compound I-34, trans-N^1-(6,7-dihydro-5H-cyclopenta[4,5]thieno[2,3-d]pyrimidin-4-yl)-N^4-methylcyclohexane-1,4-diamine] |
| < 5 µM | CC(C)NC(=O)CN(C)[C@H]1CC[C@H](Nc2ncnc3sc4c(c23)CCC4)CC1 [Compound I-125, 2-(((1r,4r)-4-((6,7-dihydro-5H-cyclopenta[4,5]thieno[2,3-d]pyrimidin-4-yl)amino)cyclohexyl)(methyl)amino)-N-isopropylacetamide] |
| < 5 µM | CN(Cc1cccc(C(=O)O)c1)[C@H]1CC[C@H](Nc2ncnc3sc4c(c23)CCC4)CC1 [Compound I-167, 3-([methyl[4-([7-thia-9,11-diazatricyclo[6.4.0.0^[2,6]]dodeca-1(8),2(6),9,11-tetraen-12-yl]amino)cyclohexyl]amino]methyl)benzoic acid] |
| < 5 µM | CC(C)N[C@H]1CC[C@H](Nc2ncnc3sc4c(c23)CCC4)CC1 [Compound I-157, 1-N-(propan-2-yl)-4-N-[7-thia-9,11-diazatricyclo[6.4.0.0^[2,6]]dodeca-1(8),2(6),9,11-tetraen-12-yl]cyclohexane-1,4-diamine] |
| < 5 µM | CN(Cc1c[nH]c2ccccc12)[C@H]1CC[C@H](Nc2ncnc3sc4c(c23)CCC4)CC1 [Compound I-110] |
